Patent US20080113938A1, “ACCELERATOR FOR MINERAL ABSORPTION AND USE THEREOF” (KABUSHIKI KAISHA HAYASHIBARA SEIBUTSU KAGAKU KENKYUJO, priority 2003, published 2008)

Legend:
[1] = Remaining cyclic tetrasaccharide in contents of alimentary canal and excrement of rats; type: in vivo, Wister rats; conditions: for Remaining percentage of cyclic tetrasaccharide in content of appendix / Remaining percentage of cyclic tetrasaccharide in content of intestinum ileum / Remaining percentage of cyclic tetrasaccharide in excrement: relative to chromium marker
From the text: Forty of Wister rats weighing 110 to 120 g (five-weeks aged male, commercialized by Charles River Japan Inc., Yokohama, Japan) were bred with a feed containing ingredients (%) shown in Table 1 for one week in order to be familiarized. The familiarized rats were randomly divided into four groups with ten rats each. Each group was experimentally bred for eight weeks with either a feed without cyclic tetrasaccharide shown in Table 1 (hereinafter, it is called as “basic feed”), or another feed of basic feed supplemented with 1%, 2% or 5% on a dry solid basis, of cyclic tetrasaccharide in a crystalline anhydrous powder form with a purity of 99.5%, prepared in the following Example A-3. These basic feed and three kinds of feeds with cyclic tetrasaccharide were prepared to contain 44.75% of the total amount of cyclic tetrasaccharide and corn starch in each feed. From one week before the end of the breeding test, in order to determine the metabolism of calcium, magnesium, iron, sodium, potassium and phosphorus (hereinafter, may be called “minerals” in all), rats in the all groups were fed with the four types of feeds supplemented with 0.5% of chromium oxide as a non-absorbed marker for the minerals. The rats were bred at 25° C. in a manner of freely allowing to take feeds and water under a condition of 12 hours regular interval between of light and shade. After completion of experimental breeding, all rats were individually weighed to calculate the average of weight and further calculate the rate of increased weight for each group.
Two days before the end of the breeding test, rats were placed into a gauge for measuring metabolism to collect their excrement in two days. The resulting excrement was subjected to the measurement of the contents of cyclic tetrasaccharide, each mineral, and chromium. After the breeding test, the rats were anatomized in an anesthetized condition to take out their alimentary canals including jejunum, intestinum ileum, appendix and colon/rectum. After the resulting alimentary canals were weighed, their contents were also weighed and subjected to the measurement of the amount of cyclic tetrasaccharide, minerals and chromium. The rats, which had been taken out their alimentary canals, were dislocated at their cervical vertebrae and taken out their femurs from right legs. The resulting femurs were subjected to the measurement of the amount of ashes, calcium, magnesium and phosphorus. The following(s) explain the methods of quantitative analysis of cyclic tetrasaccharide and the methods of measurement of minerals and chromium.
One gram of a feed was admixed with 5 ml of 80% ethanol heated at 85° C. under reflux for 15 minutes to extract saccharides. The resulting saccharide sample was subjected to TMS derivatization in a usual manner. Three microliters of the sample was applied to a gas chromatography (“GC-16™”, commercialized by Shimazu Corporation, Kyoto, Japan) equipped with OV-17 packed column (“2% Silicone, OV-17 Chromosorb W/AW DMSC 80-100 mesh, 3 mmID×2 m, SUS”, produced by GL Science Corporation). The inner column temperature was kept at 160° C. for two minutes, and heated up to 320° C. at a rate of 7.5° C./min. The amount of cyclic tetrasaccharide was quantified by using nitrogen gas as a carrier (35 ml/min). While, in order to quantify the amounts of the contents of jejunum, intestinum ileum, appendix, colon/rectum and excrement, 0.05 g of each sample was weighed in a micro tube for gas chromatography and dried in a desiccator with phosphorus pentoxide. The resulting samples were subjected to TMS derivatization in a usual manner and quantified by gas chromatography.
The remaining percentages (%) were calculated using the following numerical formula, based on the rate of the amount of cyclic tetrasaccharide to chromium in each feed and the rate of those in the contents or excrement in consideration of that chromium is never absorbed by living bodies; […]

[2] = system: reversed canal sac of jejunum; assay: Calcium absorption in reversed canal sac, jejunum; type: cell-based, Wister rats
Experimental: (§1) Experiment 1 confirmed that cyclic tetrasaccharide promotes mineral absorption in alimentary canal of rat concretely in intestinum ileum or its upper alimentary canal. The following experiment was carried out in order to determine a part of alimentary canal, cyclic tetrasaccharide acts on to promote mineral absorption. Twenty heads of Wister rats (nine week aged male, commercialized by Charlesriver Corporation, Kanagawa, Japan) were bred for three days with a usual solid feed for rats. Under the anesthetization with ether, alimentary canal was taken out from each rat which had been bled from a jugular vein and treated by abdominal operation. Each alimentary canal was divided into jejunum, intestinum ileum and colon/rectum and washed with physiological saline to remove the content. The resulting jejunum specimen, intestinum ileum specimen or colon/rectum specimen was cut off to prepare each midsection sized with about 10 cm in length. The resulting midsection of each specimen was reversed using a glass rod and immersed in a physiological saline babbled with gas consisting of 95% oxygen and 5% carbon dioxide. The resultant was cut into pieces sized with 5 cm in length and each piece was tied with a suture thread at both ends to prepare a reversed canal sac, and injected with about 0.5 ml of an internal sac solution containing 30 mM Tris-HCl buffer (pH7.4), 125 mM sodium chloride, 4 mM potassium chloride, 10 mM glucose and 1.25 mM calcium chloride (dihydrate) with a syringe and weighed. The resulting sac was immersed in an external sac solution (being bubbled with the gas consisting of 95% oxygen and 5% carbon dioxide) containing 50 mM, 100 mM or 200 mM of the same cyclic tetrasaccharide to Experiment 1 in the above solution containing 30 mM Tris-HCl buffer (pH7.4), 125 mM sodium chloride, 4 mM potassium chloride, 10 mM glucose and 1.25 mM calcium chloride (dihydrate). At 15 or 30 minutes after the immersion, the reversed canal sac was taken out from the solution and washed with distilled water. The internal sac solution was collected from the resulting sac and admixed with distilled water to give a final volume of 25 ml. The resulting solution was subjected to a calorimetric measurement of calcium content using “CALCIUM TEST C WAKO™” (commercialized by Wako Pure Chemicals Corporation, Osaka, Japan). As a negative control, an external sac solution without saccharides. As a positive control, an external sac solution containing 200 mM maltitol, reported to have the effect on promoting mineral absorption though intestinal canal, instead of cyclic tetrasaccharide were prepared and carried out in the same manner. Speed of calcium absorption (nmol/min·cm^2) and its relative values defining the value of negative control as 100 were calculated.

[3] = system: reversed canal sac of colon/rectum; assay: Calcium absorption in reversed canal sac, colon/rectum; type: cell-based, Wister rats
Experimental: as §1

[4] = 1% cyclic tetrasaccharide in feed
[5] = 2% cyclic tetrasaccharide in feed
[6] = 5% cyclic tetrasaccharide in feed
[7] = feed supplemented with 1%, 2% or 5% of cyclic tetrasaccharide
[8] = 50 mM saccharide in external sac solution
[9] = 100 mM saccharide in external sac solution
[10] = 200 mM saccharide in external sac solution

OC[C@H]1O[C@@H]2OC[C@H]3O[C@H](O[C@@H]4[C@@H](O)[C@@H](OC[C@H]5O[C@H](O[C@H]([C@H]2O)[C@@H]1O)[C@H](O)[C@@H](O)[C@@H]5O)O[C@H](CO)[C@H]4O)[C@H](O)[C@@H](O)[C@@H]3O [cyclic tetrasaccharide, cyclo{>6)-α-D-glucopyranosyl-(1>3)-α-D-glucopyranosyl-(1>6)-α-D-glucopyranosyl-(1>3)-α-D-glucopyranosyl-(1>}]
Amount of cyclic tetrasaccharide in content of appendix [1, 4]: 0.0 mg/g
Amount of cyclic tetrasaccharide in content of intestinum ileum [1, 4]: 60.5 mg/g
Amount of cyclic tetrasaccharide in excrement [1, 4]: 0.0 mg/g
Remaining percentage of cyclic tetrasaccharide in content of appendix [1, 4]: 0%
Remaining percentage of cyclic tetrasaccharide in content of intestinum ileum [1, 4]: 95%
Remaining percentage of cyclic tetrasaccharide in excrement [1, 4]: 0%
Amount of cyclic tetrasaccharide in content of appendix [1, 5]: 0.0 mg/g
Amount of cyclic tetrasaccharide in content of intestinum ileum [1, 5]: 184.1 mg/g
Amount of cyclic tetrasaccharide in excrement [1, 5]: 0.0 mg/g
Remaining percentage of cyclic tetrasaccharide in content of appendix [1, 5]: 0%
Remaining percentage of cyclic tetrasaccharide in content of intestinum ileum [1, 5]: 95%
Remaining percentage of cyclic tetrasaccharide in excrement [1, 5]: 0%
Amount of cyclic tetrasaccharide in content of appendix [1, 6]: 0.0 mg/g
Amount of cyclic tetrasaccharide in content of intestinum ileum [1, 6]: 298.0 mg/g
Amount of cyclic tetrasaccharide in excrement [1, 6]: 0.0 mg/g
Remaining percentage of cyclic tetrasaccharide in content of appendix [1, 6]: 0%
Remaining percentage of cyclic tetrasaccharide in content of intestinum ileum [1, 6]: 90%
Remaining percentage of cyclic tetrasaccharide in excrement [1, 6]: 0%
cyclic tetrasaccharide in the appendix and excrement [1, 7]: not detected at all
cyclic tetrasaccharide remained up to intestinum ileum without digestion [1, 7]: at least 90%
Absorption speed of calcium in alimentary canal sac, Jejunum [2, 8]: 26.5 *※ nmol/min · cm^2
Relative value of calcium absorption speed (control = 100), Jejunum [2, 8]: (124)
Absorption speed of calcium in alimentary canal sac, Jejunum [2, 9]: 37.6 *※ nmol/min · cm^2
Relative value of calcium absorption speed (control = 100), Jejunum [2, 9]: (176)
Absorption speed of calcium in alimentary canal sac, Jejunum [2, 10]: 39.0 *※ nmol/min · cm^2
Relative value of calcium absorption speed (control = 100), Jejunum [2, 10]: (183)
promotion of calcium absorption in jejunum ([2]; reversed sac): strongly promoted
Absorption speed of calcium in alimentary canal sac, Colon/Rectum [3, 8]: 13.5 ※ nmol/min · cm^2
Relative value of calcium absorption speed (control = 100), Colon/Rectum [3, 8]: (101)
Absorption speed of calcium in alimentary canal sac, Colon/Rectum [3, 9]: 14.6 *※ nmol/min · cm^2
Relative value of calcium absorption speed (control = 100), Colon/Rectum [3, 9]: (109)
Absorption speed of calcium in alimentary canal sac, Colon/Rectum [3, 10]: 15.4 *※ nmol/min · cm^2
Relative value of calcium absorption speed (control = 100), Colon/Rectum [3, 10]: (116)
promotion of calcium absorption in colon/rectum ([3]; reversed sac): slightly
